Laboratory results from US20020111274A1, “1-alkyl-3-[1-(substituted phenyl) benzotriazol-6-yl] uracils” (BASF Aktiengesellschaft, priority 2000, published 2002).

How the values were obtained:
Design in all cases: scale not given here
ABUTH Velvetleaf [1] = assay: Postemergence herbicidal evaluation, ABUTH; type: in vivo, Abutilon theophrasti, Medic.; details: postemergence spray, rated about two-three weeks after treatment
Description: (§1) In this evaluation, seedling plants are grown in jiffy flats for about two weeks. The test compounds are dispersed in 80/20 acetone/water mixtures containing 1.0% SUN-IT® II, a methylated seed oil, in sufficient quantities to provide the equivalent of about 0.006 kg to 0.400 kg per hectare of active compound when applied to the plants through a spray nozzle operating at 40 psi for a predetermined time. After spraying, the plants are placed on greenhouse benches and are cared for in accordance with conventional greenhouse procedures. Approximately two - three weeks after treatment, the seedling plants are examined and rated according to the rating system set forth below. Where more than one test is involved for a given compound, the data are averaged.

AMBEL Ragweed, Common [2] = assay: Postemergence herbicidal evaluation, AMBEL; type: in vivo, Ambrosia artemisifolia, L.; details: postemergence spray, rated about two-three weeks after treatment
Description: as §1

CASOB Sicklepod [3] = assay: Postemergence herbicidal evaluation, CASOB; type: in vivo, Cassia obtusifolia, L.; details: postemergence spray, rated about two-three weeks after treatment
Description: as §1

[4] = system: CHEAL Lambsquarters, Common; assay: Postemergence herbicidal evaluation, CHEAL; type: in vivo, Chenopodium album, L.; details: postemergence spray, rated about two-three weeks after treatment
Description: as §1

ECHOG Barnyardgrass [5] = assay: Postemergence herbicidal evaluation, ECHOG; type: in vivo, Echinochloa crus-galli, (L.) Beau; details: postemergence spray, rated about two-three weeks after treatment
Description: as §1

GALAP Galium [6] = assay: Postemergence herbicidal evaluation, GALAP; type: in vivo, Galium aparine; details: postemergence spray, rated about two-three weeks after treatment
Description: as §1

[7] = system: IPOHE Morningglory, Ivyleaf; assay: Postemergence herbicidal evaluation, IPOHE; type: in vivo, Ipomoea hederacea, (L.) Jacq.; details: postemergence spray, rated about two-three weeks after treatment
Description: as §1

SETVI Foxtail, Green [8] = assay: Postemergence herbicidal evaluation, SETVI; type: in vivo, Setaria viridis, (L.) Beau; details: postemergence spray, rated about two-three weeks after treatment
Description: as §1

GLXMAW Soybean, Williams [9] = assay: Postemergence herbicidal evaluation, GLXMAW; type: in vivo, Glycine max, (L.) Merr. cv Williams; details: postemergence spray, rated about two-three weeks after treatment
Description: as §1

[10] = system: TRZAWR Wheat, Winter, cv Riband; assay: Postemergence herbicidal evaluation, TRZAWR; type: in vivo, Triticum aestivum; details: postemergence spray, rated about two-three weeks after treatment
Description: as §1

ORYSAT Rice, Tebonnet [11] = assay: Postemergence herbicidal evaluation, ORYSAT; type: in vivo, Oryza sativa, (L.); details: postemergence spray, rated about two-three weeks after treatment
Description: as §1

ZEAMX Corn, Field [12] = assay: Postemergence herbicidal evaluation, ZEAMX; type: in vivo, Zea mays, L. (Sammel-Bezeichnung); details: postemergence spray, rated about two-three weeks after treatment
Description: as §1

ABUTH Velvetleaf [13] = assay: Preemergence herbicidal evaluation, ABUTH; type: in vivo, Abutilon theophrasti, Medic.; details: preemergence
Description: (§2) The preemergence herbicidal activity of the test compounds of the present invention is exemplified by the following tests in which the seeds of a variety of monocotyledonous and dicotyledonous plants are separately mixed with potting soil and planted on top of approximately one inch of soil in separate pint cups. […] The treated cups are then placed on greenhouse benches, watered and cared for in accordance with conventional greenhouse procedures. From four to five weeks after treatment, the tests are terminated and each cup is examined and rated according to the rating system provided in Example 46.

AMBEL Ragweed, Common [14] = assay: Preemergence herbicidal evaluation, AMBEL; type: in vivo, Ambrosia artemisifolia, L.; details: preemergence
Description: as §2

CASOB Sicklepod [15] = assay: Preemergence herbicidal evaluation, CASOB; type: in vivo, Cassia obtusifolia, L.; details: preemergence
Description: as §2

[16] = system: CHEAL Lambsquarters, Common; assay: Preemergence herbicidal evaluation, CHEAL; type: in vivo, Chenopodium album, L.; details: preemergence
Description: as §2

ECHOG Barnyardgrass [17] = assay: Preemergence herbicidal evaluation, ECHOG; type: in vivo, Echinochloa crus-galli, (L.) Beau; details: preemergence
Description: as §2

GALAP Galium [18] = assay: Preemergence herbicidal evaluation, GALAP; type: in vivo, Galium aparine; details: preemergence
Description: as §2

[19] = system: IPOHE Morningglory, Ivyleaf; assay: Preemergence herbicidal evaluation, IPOHE; type: in vivo, Ipomoea hederacea, (L.) Jacq.; details: preemergence
Description: as §2

SETVI Foxtail, Green [20] = assay: Preemergence herbicidal evaluation, SETVI; type: in vivo, Setaria viridis, (L.) Beau; details: preemergence
Description: as §2

GLXMAW Soybean, Williams [21] = assay: Preemergence herbicidal evaluation, GLXMAW; type: in vivo, Glycine max, (L.) Merr. cv Williams; details: preemergence
Description: as §2

[22] = system: TRZAWR Wheat, Winter, cv Riband; assay: Preemergence herbicidal evaluation, TRZAWR; type: in vivo, Triticum aestivum; details: preemergence
Description: as §2

ORYSAT Rice, Tebonnet [23] = assay: Preemergence herbicidal evaluation, ORYSAT; type: in vivo, Oryza sativa, (L.); details: preemergence
Description: as §2

ZEAMX Corn, Field [24] = assay: Preemergence herbicidal evaluation, ZEAMX; type: in vivo, Zea mays, L. (Sammel-Bezeichnung); details: preemergence
Description: as §2

C=CCOc1ccc(C)cc1-n1nnc2cc(F)c(-n3c(=O)cc(C(F)(F)F)n(C)c3=O)cc21 [Example 42]
5.5: Postemergence herbicidal rating GLXMAW (GLXMAW Soybean, Williams [9]; 0.016 kg/ha)
2.5: Postemergence herbicidal rating TRZAWR ([10]; 0.008 kg/ha) | Postemergence herbicidal rating TRZAWR ([10]; 0.016 kg/ha) | Postemergence herbicidal rating ORYSAT (ORYSAT Rice, Tebonnet [11]; 0.016 kg/ha) | Postemergence herbicidal rating ORYSAT (ORYSAT Rice, Tebonnet [11]; 0.032 kg/ha) | Postemergence herbicidal rating ORYSAT (ORYSAT Rice, Tebonnet [11]; 0.062 kg/ha)
5.0: Postemergence herbicidal rating GLXMAW (GLXMAW Soybean, Williams [9]; 0.008 kg/ha) | Postemergence herbicidal rating ZEAMX (ZEAMX Corn, Field [12]; 0.008 kg/ha) | Postemergence herbicidal rating ZEAMX (ZEAMX Corn, Field [12]; 0.016 kg/ha) | Postemergence herbicidal rating ZEAMX (ZEAMX Corn, Field [12]; 0.062 kg/ha) | AMBEL herbicidal rating (AMBEL Ragweed, Common [14]; rate 0.125 kg/ha) | GLXMAW herbicidal rating (GLXMAW Soybean, Williams [21]; rate 0.125 kg/ha)
1.0: Postemergence herbicidal rating ECHCG (ECHOG Barnyardgrass [5]; 0.016 kg/ha) | Postemergence herbicidal rating ECHCG (ECHOG Barnyardgrass [5]; 0.032 kg/ha) | Postemergence herbicidal rating ECHCG (ECHOG Barnyardgrass [5]; 0.062 kg/ha) | Postemergence herbicidal rating GALAP (GALAP Galium [6]; 0.008 kg/ha) | Postemergence herbicidal rating GALAP (GALAP Galium [6]; 0.016 kg/ha) | Postemergence herbicidal rating GALAP (GALAP Galium [6]; 0.032 kg/ha) | Postemergence herbicidal rating GALAP (GALAP Galium [6]; 0.062 kg/ha) | AMBEL herbicidal rating (AMBEL Ragweed, Common [14]; rate 0.062 kg/ha) | CASOB herbicidal rating (CASOB Sicklepod [15]; rate 0.125 kg/ha) | ECHCG herbicidal rating (ECHOG Barnyardgrass [17]; rate 0.016 kg/ha) | TRZAWR herbicidal rating ([22]; rate 0.125 kg/ha) | ORYSAT herbicidal rating (ORYSAT Rice, Tebonnet [23]; rate 0.062 kg/ha) | ORYSAT herbicidal rating (ORYSAT Rice, Tebonnet [23]; rate 0.125 kg/ha) | ZEAMX herbicidal rating (ZEAMX Corn, Field [24]; rate 0.062 kg/ha)
4.5: Postemergence herbicidal rating ZEAMX (ZEAMX Corn, Field [12]; 0.032 kg/ha)
6.0: Postemergence herbicidal rating CHEAL ([4]; 0.016 kg/ha) | IPOHE herbicidal rating ([19]; rate 0.125 kg/ha)
7.0: Postemergence herbicidal rating ABUTH (ABUTH Velvetleaf [1]; 0.008 kg/ha) | Postemergence herbicidal rating AMBEL (AMBEL Ragweed, Common [2]; 0.008 kg/ha) | Postemergence herbicidal rating AMBEL (AMBEL Ragweed, Common [2]; 0.016 kg/ha) | Postemergence herbicidal rating AMBEL (AMBEL Ragweed, Common [2]; 0.032 kg/ha) | Postemergence herbicidal rating CHEAL ([4]; 0.032 kg/ha) | Postemergence herbicidal rating CHEAL ([4]; 0.062 kg/ha) | Postemergence herbicidal rating GLXMAW (GLXMAW Soybean, Williams [9]; 0.032 kg/ha) | Postemergence herbicidal rating GLXMAW (GLXMAW Soybean, Williams [9]; 0.062 kg/ha) | ABUTH herbicidal rating (ABUTH Velvetleaf [13]; rate 0.016 kg/ha) | ECHCG herbicidal rating (ECHOG Barnyardgrass [17]; rate 0.125 kg/ha) | SETVI herbicidal rating (SETVI Foxtail, Green [20]; rate 0.032 kg/ha)
0.0: Postemergence herbicidal rating CASOB (CASOB Sicklepod [3]; 0.008 kg/ha) | Postemergence herbicidal rating CASOB (CASOB Sicklepod [3]; 0.016 kg/ha) | Postemergence herbicidal rating ECHCG (ECHOG Barnyardgrass [5]; 0.008 kg/ha) | Postemergence herbicidal rating SETVI (SETVI Foxtail, Green [8]; 0.008 kg/ha) | AMBEL herbicidal rating (AMBEL Ragweed, Common [14]; rate 0.016 kg/ha) | AMBEL herbicidal rating (AMBEL Ragweed, Common [14]; rate 0.032 kg/ha) | CASOB herbicidal rating (CASOB Sicklepod [15]; rate 0.016 kg/ha) | CASOB herbicidal rating (CASOB Sicklepod [15]; rate 0.032 kg/ha) | CASOB herbicidal rating (CASOB Sicklepod [15]; rate 0.062 kg/ha) | GALAP herbicidal rating (GALAP Galium [18]; rate 0.016 kg/ha) | GALAP herbicidal rating (GALAP Galium [18]; rate 0.032 kg/ha) | GALAP herbicidal rating (GALAP Galium [18]; rate 0.062 kg/ha) | GALAP herbicidal rating (GALAP Galium [18]; rate 0.125 kg/ha) | IPOHE herbicidal rating ([19]; rate 0.016 kg/ha) | IPOHE herbicidal rating ([19]; rate 0.032 kg/ha) | IPOHE herbicidal rating ([19]; rate 0.062 kg/ha) | GLXMAW herbicidal rating (GLXMAW Soybean, Williams [21]; rate 0.016 kg/ha) | TRZAWR herbicidal rating ([22]; rate 0.016 kg/ha) | TRZAWR herbicidal rating ([22]; rate 0.032 kg/ha) | TRZAWR herbicidal rating ([22]; rate 0.062 kg/ha) | ORYSAT herbicidal rating (ORYSAT Rice, Tebonnet [23]; rate 0.016 kg/ha) | ORYSAT herbicidal rating (ORYSAT Rice, Tebonnet [23]; rate 0.032 kg/ha) | ZEAMX herbicidal rating (ZEAMX Corn, Field [24]; rate 0.016 kg/ha) | ZEAMX herbicidal rating (ZEAMX Corn, Field [24]; rate 0.032 kg/ha)
9.0: Postemergence herbicidal rating ABUTH (ABUTH Velvetleaf [1]; 0.016 kg/ha) | Postemergence herbicidal rating ABUTH (ABUTH Velvetleaf [1]; 0.032 kg/ha) | Postemergence herbicidal rating ABUTH (ABUTH Velvetleaf [1]; 0.062 kg/ha) | Postemergence herbicidal rating AMBEL (AMBEL Ragweed, Common [2]; 0.062 kg/ha) | Postemergence herbicidal rating IPOHE ([7]; 0.008 kg/ha) | Postemergence herbicidal rating IPOHE ([7]; 0.016 kg/ha) | Postemergence herbicidal rating IPOHE ([7]; 0.032 kg/ha) | Postemergence herbicidal rating IPOHE ([7]; 0.062 kg/ha) | Postemergence herbicidal rating SETVI (SETVI Foxtail, Green [8]; 0.032 kg/ha) | Postemergence herbicidal rating SETVI (SETVI Foxtail, Green [8]; 0.062 kg/ha) | ABUTH herbicidal rating (ABUTH Velvetleaf [13]; rate 0.032 kg/ha) | ABUTH herbicidal rating (ABUTH Velvetleaf [13]; rate 0.062 kg/ha) | ABUTH herbicidal rating (ABUTH Velvetleaf [13]; rate 0.125 kg/ha) | CHEAL herbicidal rating ([16]; rate 0.016 kg/ha) | CHEAL herbicidal rating ([16]; rate 0.032 kg/ha) | CHEAL herbicidal rating ([16]; rate 0.062 kg/ha) | CHEAL herbicidal rating ([16]; rate 0.125 kg/ha) | SETVI herbicidal rating (SETVI Foxtail, Green [20]; rate 0.062 kg/ha) | SETVI herbicidal rating (SETVI Foxtail, Green [20]; rate 0.125 kg/ha)
4.0: Postemergence herbicidal rating CASOB (CASOB Sicklepod [3]; 0.032 kg/ha) | Postemergence herbicidal rating CASOB (CASOB Sicklepod [3]; 0.062 kg/ha) | Postemergence herbicidal rating TRZAWR ([10]; 0.062 kg/ha) | ZEAMX herbicidal rating (ZEAMX Corn, Field [24]; rate 0.125 kg/ha)
2.0: Postemergence herbicidal rating CHEAL ([4]; 0.008 kg/ha) | Postemergence herbicidal rating SETVI (SETVI Foxtail, Green [8]; 0.016 kg/ha) | Postemergence herbicidal rating ORYSAT (ORYSAT Rice, Tebonnet [11]; 0.008 kg/ha)
3.0: Postemergence herbicidal rating TRZAWR ([10]; 0.032 kg/ha) | ECHCG herbicidal rating (ECHOG Barnyardgrass [17]; rate 0.032 kg/ha) | ECHCG herbicidal rating (ECHOG Barnyardgrass [17]; rate 0.062 kg/ha) | SETVI herbicidal rating (SETVI Foxtail, Green [20]; rate 0.016 kg/ha) | GLXMAW herbicidal rating (GLXMAW Soybean, Williams [21]; rate 0.032 kg/ha) | GLXMAW herbicidal rating (GLXMAW Soybean, Williams [21]; rate 0.062 kg/ha)
